Reference: the NIST ThermoML archive (doi:10.1021/je900134z)
Numbers after ± are expanded uncertainties.

What was measured:
[1] = for mass density / viscosity: 101.33 kPa, Liquid; for viscosity: Surface Light Scattering; for surface tension liquid-gas: Drop weight
[2] = refractive index (Na D-line) (dimensionless); settings: 101.33 kPa, Liquid

SMILES | mass density ([1]; 273.15 K) [kg/m3] | viscosity ([1]; 273.15 K) [mPa·s] | mass density ([1]; 278.15 K) [kg/m3] | viscosity ([1]; 278.15 K) [mPa·s] | mass density ([1]; 283.15 K) [kg/m3] | viscosity ([1]; 283.15 K) [mPa·s] | mass density ([1]; 288.15 K) [kg/m3] | viscosity ([1]; 288.15 K) [mPa·s] | surface tension liquid-gas ([1]; 293.15 K) [mN/m] | mass density ([1]; 293.15 K) [kg/m3] | viscosity ([1]; 293.15 K) [mPa·s] | mass density ([1]; 298.15 K) [kg/m3] | mass density ([1]; 303.15 K) [kg/m3] | viscosity ([1]; 303.15 K) [mPa·s] | mass density ([1]; 308.15 K) [kg/m3] | mass density ([1]; 313.15 K) [kg/m3] | viscosity ([1]; 313.15 K) [mPa·s] | mass density ([1]; 318.15 K) [kg/m3] | viscosity ([1]; 323.15 K) [mPa·s] | mass density ([1]; 328.15 K) [kg/m3] | also measured
CCCCn1cc[n+](CCCC)c1.O=S(=O)([N-]S(=O)(=O)C(F)(F)F)C(F)(F)F | 1362.73 ± 2 | 277.9 ± 17 | 1358.06 ± 2 | 203 ± 12 | 1353.51 ± 2 | 152.1 ± 9.2 | 1349.01 ± 1.9 | 115.3 ± 6.9 | 29.55 ± 0.62 | 1344.5 ± 1.9 | 89.5 ± 5.4 | 1340.01 ± 1.9 | 1335.51 ± 1.9 | 57.2 ± 3.4 | 1331.02 ± 1.9 | 1326.56 ± 1.9 | 37.9 ± 2.3 | 1322.09 ± 1.9 | 26.5 ± 1.6 | 1313.2 ± 1.8 | mass density ([1]; 333.15 K): 1308.77 ± 1.8 kg/m3; viscosity ([1]; 333.15 K): 19.2 ± 1.2 mPa·s; mass density ([1]; 338.15 K): 1304.36 ± 1.8 kg/m3; mass density ([1]; 343.15 K): 1299.99 ± 1.8 kg/m3; mass density ([1]; 348.15 K): 1295.57 ± 1.8 kg/m3; mass density ([1]; 353.15 K): 1291.2 ± 1.8 kg/m3; mass density ([1]; 358.15 K): 1286.84 ± 1.7 kg/m3; mass density ([1]; 363.15 K): 1282.5 ± 1.7 kg/m3; refractive index ([2]; 283.15 K): 1.4376 ± 0.0016; refractive index ([2]; 293.15 K): 1.4347 ± 0.0015; refractive index ([2]; 303.15 K): 1.4324 ± 0.0015; refractive index ([2]; 313.15 K): 1.4298 ± 0.0015
CCn1cc[n+](C)c1.CS(=O)(=O)[O-] [1-ethyl-3-methylimidazolium methanesulfonate] | 1259.14 ± 1.6 | 1112.6 ± 67 | 1255.59 ± 1.6 | 676.3 ± 41 | 1252.04 ± 1.5 | 435.5 ± 26 | 1248.49 ± 1.5 | 290.1 ± 18 | 50.72 ± 1.1 | 1244.96 ± 1.5 | 205.2 ± 12 | 1241.52 ± 1.5 | 1238.15 ± 1.5 | 112.9 ± 6.8 | 1234.77 ± 1.5 | 1231.4 ± 1.4 | 69 ± 4.2 | 1228.03 ± 1.4 | 44.6 ± 2.7 | 1221.33 ± 1.4 | mass density ([1]; 333.15 K): 1218 ± 1.4 kg/m3; viscosity ([1]; 333.15 K): 31.7 ± 1.9 mPa·s; mass density ([1]; 338.15 K): 1214.69 ± 1.4 kg/m3; mass density ([1]; 343.15 K): 1211.38 ± 1.4 kg/m3; mass density ([1]; 348.15 K): 1208.09 ± 1.4 kg/m3; mass density ([1]; 353.15 K): 1204.82 ± 1.4 kg/m3; mass density ([1]; 358.15 K): 1201.56 ± 1.4 kg/m3; mass density ([1]; 363.15 K): 1198.31 ± 1.3 kg/m3; refractive index ([2]; 283.15 K): 1.5018 ± 0.0015; refractive index ([2]; 293.15 K): 1.4996 ± 0.0015; refractive index ([2]; 303.15 K): 1.4977 ± 0.0015; refractive index ([2]; 313.15 K): 1.4949 ± 0.0015
CCn1cc[n+](C)c1.CO[PH](=O)[O-] [1-ethyl-3-methylimidazolium methyl phosphonate] | 1208.75 ± 2.2 | 563.9 ± 34 | 1205.29 ± 2.2 | 379.6 ± 23 | 1201.82 ± 2.2 | 266.6 ± 16 | 1198.42 ± 2.1 | 193.2 ± 12 | 45.49 ± 1 | 1195.12 ± 2.1 | 143.1 ± 8.7 | 1191.82 ± 2.1 | 1188.5 ± 2.1 | 83.4 ± 5.1 | 1185.21 ± 2.1 | 1181.92 ± 2.1 | 53.9 ± 3.3 | 1178.65 ± 2 | 36.4 ± 2.2 | 1172.14 ± 2 | mass density ([1]; 323.15 K): 1175.39 ± 2 kg/m3; mass density ([1]; 333.15 K): 1168.89 ± 2 kg/m3; viscosity ([1]; 333.15 K): 27.4 ± 1.7 mPa·s; mass density ([1]; 338.15 K): 1165.66 ± 2 kg/m3; mass density ([1]; 343.15 K): 1162.45 ± 2 kg/m3; mass density ([1]; 348.15 K): 1159.25 ± 1.9 kg/m3; mass density ([1]; 353.15 K): 1156.06 ± 1.9 kg/m3; mass density ([1]; 358.15 K): 1152.9 ± 1.9 kg/m3; mass density ([1]; 363.15 K): 1149.73 ± 1.9 kg/m3; refractive index ([2]; 283.15 K): 1.4969 ± 0.0016; refractive index ([2]; 293.15 K): 1.4935 ± 0.0016; refractive index ([2]; 303.15 K): 1.4928 ± 0.0016; refractive index ([2]; 313.15 K): 1.4902 ± 0.0016
CCCCCCCCOS(=O)(=O)[O-].CCn1cc[n+](C)c1 [1-ethyl-3-methylimidazolium octyl sulfate] | 1111.56 ± 1.1 | 3894.8 ± 230 | 1108 ± 1.1 | 2429.9 ± 150 | 1104.34 ± 1.1 | 1578.5 ± 95 | 1100.82 ± 1.1 | 1045.1 ± 63 | 31 ± 0.65 | 1097.48 ± 1.1 | 717.8 ± 43 | 1094.15 ± 1.1 | 1090.83 ± 1.1 | 368.1 ± 22 | 1087.52 ± 1.1 | 1084.2 ± 1 | 208.1 ± 12 | 1080.97 ± 1 | 126.2 ± 7.6 | 1074.55 ± 1 | mass density ([1]; 333.15 K): 1071.34 ± 1 kg/m3; viscosity ([1]; 333.15 K): 80.9 ± 4.9 mPa·s; mass density ([1]; 338.15 K): 1068.14 ± 1 kg/m3; mass density ([1]; 343.15 K): 1064.94 ± 0.99 kg/m3; mass density ([1]; 348.15 K): 1061.76 ± 0.98 kg/m3; mass density ([1]; 353.15 K): 1058.59 ± 0.97 kg/m3; mass density ([1]; 358.15 K): 1055.42 ± 0.96 kg/m3; mass density ([1]; 363.15 K): 1052.26 ± 0.96 kg/m3; refractive index ([2]; 283.15 K): 1.4786 ± 0.0015; refractive index ([2]; 293.15 K): 1.4766 ± 0.0015; refractive index ([2]; 303.15 K): 1.4737 ± 0.0015; refractive index ([2]; 313.15 K): 1.4712 ± 0.0015
